Measured values: ChEMBL document CHEMBL1949615, “Dual β2-adrenoceptor agonists-PDE4 inhibitors for the treatment of asthma and COPD” (Bioorg Med Chem Lett, 2012)
Activity calls are given as the source filed them. The calls are words filed in the database; no cut-off is given here.

Key:
[1] = molecular target: T1, Beta-2 adrenergic receptor (Cavia porcellus, UniProt Q8K4Z4); assay: Agonist activity at beta2 adrenoceptor in guinea pig assessed as relaxation of histamine-induced tracheal ring contraction; type: functional, tissue-based, Trachea
[2] = molecular target: 3',5'-cyclic-AMP phosphodiesterase 4B (Homo sapiens, UniProt Q07343); assay: Inhibition of human recombinant PDE4B2-mediated cAMP hydrolysis for 30 mins by colorimetric assay
[3] = Inhibition of PDE4
[4] = molecular target: Beta-2 adrenergic receptor (Cavia porcellus) (UniProt Q8K4Z4); assay: Agonist activity at beta2 adrenoceptor in guinea pig assessed as relaxation of histamine-induced tracheal ring contraction in the presence of inverse agonist ICI-118551; type: functional, tissue-based; settings: Trachea
[5] = molecular target: T1, Beta-2 adrenergic receptor; assay: Competitive antagonist activity at beta2-adrenoceptor in guinea pig tracheal ring in the presence of N-(5-((1R)-2-(4-(4-(3,4-[…])-1-oxo-4a,5,6,7,8,8a-hexahydrophthalazin-2(1H)-yl)butylamino-1-hydroxyethyl)-2-hydroxyphenyl)formamide; type: functional; settings: read-out: pA2 (converted)

3',5'-cyclic-AMP phosphodiesterase 4B, sequence (Q07343 whole entry): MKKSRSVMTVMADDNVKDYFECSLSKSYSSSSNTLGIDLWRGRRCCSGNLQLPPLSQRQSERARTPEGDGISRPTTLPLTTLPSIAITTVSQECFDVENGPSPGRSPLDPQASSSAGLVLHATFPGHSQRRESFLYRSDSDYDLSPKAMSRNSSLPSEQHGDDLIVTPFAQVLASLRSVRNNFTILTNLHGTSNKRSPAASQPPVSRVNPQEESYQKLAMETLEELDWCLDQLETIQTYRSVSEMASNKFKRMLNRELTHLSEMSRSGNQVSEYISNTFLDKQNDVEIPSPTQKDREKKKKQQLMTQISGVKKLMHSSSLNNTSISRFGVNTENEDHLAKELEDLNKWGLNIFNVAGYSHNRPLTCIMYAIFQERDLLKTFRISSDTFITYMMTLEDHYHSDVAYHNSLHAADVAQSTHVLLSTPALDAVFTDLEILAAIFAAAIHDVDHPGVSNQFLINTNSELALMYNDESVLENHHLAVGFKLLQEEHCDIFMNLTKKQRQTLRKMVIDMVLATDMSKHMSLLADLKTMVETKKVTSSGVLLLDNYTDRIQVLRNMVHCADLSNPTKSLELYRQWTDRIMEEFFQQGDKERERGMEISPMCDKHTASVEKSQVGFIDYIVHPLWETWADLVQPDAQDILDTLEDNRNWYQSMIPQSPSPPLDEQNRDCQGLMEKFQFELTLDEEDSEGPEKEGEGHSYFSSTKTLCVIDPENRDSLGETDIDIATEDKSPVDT
T1 sequence (Q8K4Z4 whole entry): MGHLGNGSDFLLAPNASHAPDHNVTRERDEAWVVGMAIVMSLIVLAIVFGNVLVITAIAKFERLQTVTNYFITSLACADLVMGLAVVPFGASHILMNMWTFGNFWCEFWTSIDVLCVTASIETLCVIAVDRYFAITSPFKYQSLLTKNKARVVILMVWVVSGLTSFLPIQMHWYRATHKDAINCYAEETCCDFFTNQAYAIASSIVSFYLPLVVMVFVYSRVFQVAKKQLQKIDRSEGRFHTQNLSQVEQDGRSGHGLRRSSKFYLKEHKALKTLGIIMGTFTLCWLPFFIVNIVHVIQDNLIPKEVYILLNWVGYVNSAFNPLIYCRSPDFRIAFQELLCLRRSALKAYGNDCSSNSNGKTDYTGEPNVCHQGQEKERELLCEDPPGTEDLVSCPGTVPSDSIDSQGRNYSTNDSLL
Beta-2 adrenergic receptor (Cavia porcellus), sequence (Q8K4Z4 whole entry, looked up): as the sequence (Q8K4Z4 whole entry) above

SMILES | EC50 [1] [nM] | IC50 [2] [nM] | IC50 [3] [nM] | Activity [4] | Kb [5] [nM]
COc1ccc(C2=NN(CCCCCCNCC(O)c3ccc(O)c(NC=O)c3)C(=O)C3CCCCC23)cc1OC (stereo not drawn) | 50.1 | 251 |  |  | 
COc1ccc(C2=NNC(=O)C3CCCCC23)cc1OC (stereo not drawn) |  | 520 |  |  | 
COc1ccc([C@]2(C#N)CC[C@@H](C(=O)O)CC2)cc1OC1CCCC1 [CILOMILAST] |  |  | 95 |  | 
COc1ccc(C2=NN(CCCCNC[C@@H](O)c3ccc(O)c(NC=O)c3)C(=O)C3CCCCC23)cc1OC (stereo partly drawn) | 126 | 284 |  |  | 
COc1ccc(C2=NN(CCCCNC[C@H](O)c3ccc(O)c(NC=O)c3)C(=O)C3CCCCC23)cc1OC (stereo partly drawn) | 0.1 | 265 |  | inactive | 0.708
COc1ccc(C2=NN(CCNCC(O)c3ccc(O)c(NC=O)c3)C(=O)C3CCCCC23)cc1OC (stereo not drawn) | 20 | 280 |  |  | 
COc1ccc(C2=NN(CCCCNCC(O)c3ccc(O)c(NC=O)c3)C(=O)C3CCCCC23)cc1OC (racemic) | 0.501 | 278 |  |  | 
COc1ccc(C2=NN(CCCCCNCC(O)c3ccc(O)c(NC=O)c3)C(=O)C3CCCCC23)cc1OC (stereo not drawn) | 20 | 257 |  |  | 
O=c1[nH]ncc2ccccc12 [PHTHALAZINONE] |  | 520 |  |  | 
CC(C)NCC(O)c1ccc(O)c(O)c1 (stereo not drawn) [ISOPROTERENOL] | 31.6 |  |  |  | 
